Test results as given in US11306078B2, “Piperidine CXCR7 receptor modulators” (IDORSIA PHARMACEUTICALS LTD., priority 2016, dated 2022).

Biological target: human chemokine receptor CXCR7 (Homo sapiens (Human), UniProt P25106)
Assay: Tango CXCR7-bla U2OS beta-arrestin recruitment assay (beta-lactamase reporter, FRET), antagonism of CXCL12/SDF1-α;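 also: compounds preincubated 15 min before CXCL12 addition, then 22 h at 37 °C, FRET emission ratio read with CCF4-AM substrate after 2 h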
Type: cell-based
Conditions: antagonistic effect on CXCR7; Tango CXCR7-bla U2OS cells, CXCL12/SDF1-α at its EC80

Sequence of human chemokine receptor CXCR7 (P25106 whole entry): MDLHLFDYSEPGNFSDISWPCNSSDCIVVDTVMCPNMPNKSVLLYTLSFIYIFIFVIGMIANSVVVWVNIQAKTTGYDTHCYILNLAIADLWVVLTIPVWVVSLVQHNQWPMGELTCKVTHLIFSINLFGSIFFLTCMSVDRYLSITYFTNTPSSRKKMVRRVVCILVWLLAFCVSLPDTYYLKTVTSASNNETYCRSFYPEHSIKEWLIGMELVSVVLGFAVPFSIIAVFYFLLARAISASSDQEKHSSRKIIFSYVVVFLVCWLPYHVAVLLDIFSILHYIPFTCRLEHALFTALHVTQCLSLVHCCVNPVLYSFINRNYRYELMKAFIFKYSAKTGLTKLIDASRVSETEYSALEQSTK

Row | SMILES | IC50
1 | O=C(N[C@@H]1CCN(C2CCCCC2)C[C@H]1C(=O)NCc1ncccn1)c1cc(-c2ccc(F)cc2F)on1 (racemic) [Example 1.032, rac-(3R*,4R*)-1-Cyclohexyl-4-{[5-(2,4-difluoro-phenyl)-isoxazole-3-carbonyl]-amino}-piperidine-3-carboxylic acid (pyrimidin-2-ylmethyl)-amide] | 154 nM
2 | Cc1ncsc1CNC(=O)[C@@H]1CN(C2CCCCC2)CC[C@H]1NC(=O)c1cc(-c2ccc(F)cc2F)on1 (racemic) [Example 1.033, rac-(3R*,4R*)-1-Cyclohexyl-4-{[5-(2,4-difluoro-phenyl)-isoxazole-3-carbonyl]-amino}-piperidine-3-carboxylic acid (4-methyl-thiazol-5-ylmethyl)-amide] | 591 nM
3 | O=C(N[C@@H]1CCN(C2CCCCC2)C[C@H]1C(=O)NCc1ccncn1)c1cc(-c2ccc(F)cc2F)on1 (racemic) [Example 1.034, rac-(3R*,4R*)-1-Cyclohexyl-4-{[5-(2,4-difluoro-phenyl)-isoxazole-3-carbonyl]-amino}-piperidine-3-carboxylic acid (pyrimidin-4-ylmethyl)-amide] | 772 nM
4 | O=C(N[C@@H]1CCN(C2CCCCC2)C[C@H]1C(=O)NCc1cnco1)c1cc(-c2ccc(F)cc2F)on1 (racemic) [Example 1.035, rac-(3R*,4R*)-1-Cyclohexyl-4-{[5-(2,4-difluoro-phenyl)-isoxazole-3-carbonyl]-amino}-piperidine-3-carboxylic acid (oxazol-5-ylmethyl)-amide] | 520 nM
5 | O=C(N[C@@H]1CCN(C2CCCCC2)C[C@H]1C(=O)N1CC(F)C1)c1cc(-c2ccc(F)cc2F)on1 (racemic) [Example 1.036, rac-5-(2,4-Difluoro-phenyl)-isoxazole-3-carboxylic acid [(3R*,4R*)-1-cyclohexyl-3-(3-fluoro-azetidine-1-carbonyl)-piperidin-4-yl]-amide] | 693 nM
6 | O=C(N[C@@H]1CCN(C2CCCCC2)C[C@H]1C(=O)NCc1cnccn1)c1cc(-c2ccc(F)cc2F)on1 (racemic) [Example 1.037, rac-(3R*,4R*)-1-Cyclohexyl-4-{[5-(2,4-difluoro-phenyl)-isoxazole-3-carbonyl]-amino}-piperidine-3-carboxylic acid (pyrazin-2-ylmethyl)-amide] | 295 nM
7 | O=C(N[C@@H]1CCN(C2CCCCC2)C[C@H]1C(=O)NCCOC(F)(F)F)c1cc(-c2ccc(F)cc2F)on1 (racemic) [Example 1.038, rac-(3R*,4R*)-1-Cyclohexyl-4-{[5-(2,4-difluoro-phenyl)-isoxazole-3-carbonyl]-amino}-piperidine-3-carboxylic acid (2-trifluoromethoxy-ethyl)-amide] | 490 nM
8 | CN(CC1COC1)C(=O)[C@@H]1CN(C2CCCCC2)CC[C@H]1NC(=O)c1cc(-c2ccc(F)cc2F)on1 (racemic) [Example 1.039, rac-(3R*,4R*)-1-Cyclohexyl-4-{[5-(2,4-difluoro-phenyl)-isoxazole-3-carbonyl]-amino}-piperidine-3-carboxylic acid methyl-oxetan-3-ylmethyl-amide] | 492 nM
9 | O=C(N[C@@H]1CCN(C2CCCCC2)C[C@H]1C(=O)NCCN1CCCC1=O)c1cc(-c2ccc(F)cc2F)on1 (racemic) [Example 1.041, rac-(3R*,4R*)-1-Cyclohexyl-4-{[5-(2,4-difluoro-phenyl)-isoxazole-3-carbonyl]-amino}-piperidine-3-carboxylic acid [2-(2-oxo-pyrrolidin-1-yl)-ethyl]-amide] | 91 nM
10 | Cn1ccc(CNC(=O)[C@@H]2CN(C3CCCCC3)CC[C@H]2NC(=O)c2cc(-c3ccc(F)cc3F)on2)n1 (racemic) [Example 1.042, rac-(3R*,4R*)-1-Cyclohexyl-4-{[5-(2,4-difluoro-phenyl)-isoxazole-3-carbonyl]-amino}-piperidine-3-carboxylic acid (1-methyl-1H-pyrazol-3-ylmetyl)-amide] | 532 nM
11 | O=C(N[C@@H]1CCN(C2CCCCC2)C[C@H]1C(=O)NCc1c[nH]cn1)c1cc(-c2ccc(F)cc2F)on1 (racemic) [Example 1.043, rac-(3R*,4R*)-1-Cyclohexyl-4-{[5-(2,4-difluoro-phenyl)-isoxazole-3-carbonyl]-amino}-piperidine-3-carboxylic acid (1H-imidazol-4-ylmethyl)-amide] | 843 nM
12 | Cc1cc(CNC(=O)[C@@H]2CN(C3CCCCC3)CC[C@H]2NC(=O)c2cc(-c3ccc(F)cc3F)on2)nn1C (racemic) [Example 1.045, rac-(3R*,4R*)-1-Cyclohexyl-4-{[5-(2,4-difluoro-phenyl)-isoxazole-3-carbonyl]-amino}-piperidine-3-carboxylic acid (1,5-dimethyl-1H-pyrazol-3-ylmethyl)-amide] | 565 nM
13 | CCc1noc(CNC(=O)[C@@H]2CN(C3CCCCC3)CC[C@H]2NC(=O)c2cc(-c3ccc(F)cc3F)on2)n1 (racemic) [Example 1.047, rac-(3R*,4R*)-1-Cyclohexyl-4-{[5-(2,4-difluoro-phenyl)-isoxazole-3-carbonyl]-amino}-piperidine-3-carboxylic acid (3-ethyl-[1,2,4]oxadiazol-5-ylmethyl)-amide] | 127 nM
14 | O=C(N[C@@H]1CCN(C2CCCCC2)C[C@H]1C(=O)NCc1cccnc1)c1cc(-c2ccc(F)cc2F)on1 (racemic) [Example 1.048, rac-(3R*,4R*)-1-Cyclohexyl-4-{[5-(2,4-difluoro-phenyl)-isoxazole-3-carbonyl]-amino}-piperidine-3-carboxylic acid (pyridin-3-ylmethyl)-amide] | 275 nM
15 | O=C(N[C@@H]1CCN(C2CCCCC2)C[C@H]1C(=O)NCc1nccs1)c1cc(-c2ccc(F)cc2F)on1 (racemic) [Example 1.051, rac-(3R*,4R*)-1-Cyclohexyl-4-{[5-(2,4-difluoro-phenyl)-isoxazole-3-carbonyl]-amino}-piperidine-3-carboxylic acid (thiazol-2-ylmethyl)-amide] | 49 nM
16 | O=C(N[C@@H]1CCN(C2CCCCC2)C[C@H]1C(=O)N1CC(F)(F)C1)c1cc(-c2ccc(F)cc2F)on1 (racemic) [Example 1.052, rac-5-(2,4-Difluoro-phenyl)-isoxazole-3-carboxylic acid [(3R*,4R*)-1-cyclohexyl-3-(3,3-difluoro-azetidine-1-carbonyl)-piperidin-4-yl]-amide] | 630 nM
17 | Cc1cc(CNC(=O)[C@@H]2CN(C3CCCCC3)CC[C@H]2NC(=O)c2cc(-c3ccc(F)cc3F)on2)n(C)n1 (racemic) [Example 1.054, rac-(3R*,4R*)-1-Cyclohexyl-4-{[5-(2,4-difluoro-phenyl)-isoxazole-3-carbonyl]-amino}-piperidine-3-carboxylic acid (2,5-dimethyl-2H-pyrazol-3-ylmethyl)-amide] | 311 nM
18 | CC(C)N(CCOCCO)C(=O)[C@@H]1CN(C2CCCCC2)CC[C@H]1NC(=O)c1cc(-c2ccc(F)cc2F)on1 (racemic) [Example 1.055, rac-(3R*,4R*)-1-Cyclohexyl-4-{[5-(2,4-difluoro-phenyl)-isoxazole-3-carbonyl]-amino}-piperidine-3-carboxylic acid [2-(2-hydroxy-ethoxy)-ethyl]-isopropyl-amide] | 232 nM
